Measurements taken from the kinase profiling compilation of Christmann-Franck et al. (2016).
Where “and” joins values, the source holds several entries; their conditions need not be identical. Equal values may be shown once.

Columns and labels:
Assay in all cases: radiometric filter-binding kinase assay, Kinase HotSpot
Settings in all cases: compound 0.5 µM; ATP 10 µM
CDK7 CCNH MNAT1 (human) = CDK7 CCNH MNAT1 (human) (UniProt P50613+P51948+P51946)
MAP3K8 (human) = MAP3K8 (human) (UniProt P41279)
CDK9 CCNK (human) = CDK9 CCNK (human) (UniProt O75909+P50750)
LCK (human) = LCK (human) (UniProt P06239)
PAK3 (human) = PAK3 (human) (UniProt O75914)
PKN1 (human) = PKN1 (human) (UniProt Q16512)
PDGFRA (human) = PDGFRA (human) (UniProt P16234)
LYN (human) = LYN (human) (UniProt P07948)
Chain of LYN (human) (P07948 whole entry, looked up): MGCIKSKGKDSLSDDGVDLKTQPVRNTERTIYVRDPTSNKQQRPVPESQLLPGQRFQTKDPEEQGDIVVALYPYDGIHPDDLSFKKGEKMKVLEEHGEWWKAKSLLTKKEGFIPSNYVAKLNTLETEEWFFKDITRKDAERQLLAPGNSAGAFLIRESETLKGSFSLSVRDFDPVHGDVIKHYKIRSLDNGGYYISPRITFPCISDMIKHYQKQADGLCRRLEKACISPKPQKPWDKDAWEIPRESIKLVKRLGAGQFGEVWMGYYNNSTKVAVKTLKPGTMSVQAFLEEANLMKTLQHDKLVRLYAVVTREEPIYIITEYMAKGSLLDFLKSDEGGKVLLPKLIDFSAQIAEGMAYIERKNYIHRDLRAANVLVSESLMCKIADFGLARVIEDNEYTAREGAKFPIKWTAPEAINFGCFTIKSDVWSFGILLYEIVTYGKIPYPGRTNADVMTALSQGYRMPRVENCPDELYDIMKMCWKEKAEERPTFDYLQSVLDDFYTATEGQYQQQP

NUAK2 (human) = NUAK2 (human) (UniProt Q9H093)
ACVR1B (human) = ACVR1B (human) (UniProt P36896)
MAPKAPK5 (human) = MAPKAPK5 (human) (UniProt Q8IW41)
CDC42BPA (human) = CDC42BPA (human) (UniProt Q5VT25)
WEE1 (human) = WEE1 (human) (UniProt P30291)
FLT1 (human) = FLT1 (human) (UniProt P17948)
PHKG1 (human) = PHKG1 (human) (UniProt Q16816)
GSK3A (human) = GSK3A (human) (UniProt P49840)
Chain of GSK3A (human) (P49840 whole entry, looked up): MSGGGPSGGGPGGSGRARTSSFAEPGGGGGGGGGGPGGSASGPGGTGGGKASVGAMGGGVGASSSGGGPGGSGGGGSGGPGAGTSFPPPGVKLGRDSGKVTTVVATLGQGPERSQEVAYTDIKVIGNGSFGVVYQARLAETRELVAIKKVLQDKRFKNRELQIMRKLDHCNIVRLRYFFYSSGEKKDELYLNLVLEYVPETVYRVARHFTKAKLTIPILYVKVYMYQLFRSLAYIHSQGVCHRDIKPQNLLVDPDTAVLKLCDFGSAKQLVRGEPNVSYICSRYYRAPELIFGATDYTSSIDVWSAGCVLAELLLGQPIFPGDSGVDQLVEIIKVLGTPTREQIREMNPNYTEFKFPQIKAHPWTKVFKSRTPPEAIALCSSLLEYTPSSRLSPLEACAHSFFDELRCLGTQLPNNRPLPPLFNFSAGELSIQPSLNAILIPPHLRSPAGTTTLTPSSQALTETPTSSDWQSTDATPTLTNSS

MARK1 (human) = MARK1 (human) (UniProt Q9P0L2)
Chain of MARK1 (human) (Q9P0L2 whole entry, looked up): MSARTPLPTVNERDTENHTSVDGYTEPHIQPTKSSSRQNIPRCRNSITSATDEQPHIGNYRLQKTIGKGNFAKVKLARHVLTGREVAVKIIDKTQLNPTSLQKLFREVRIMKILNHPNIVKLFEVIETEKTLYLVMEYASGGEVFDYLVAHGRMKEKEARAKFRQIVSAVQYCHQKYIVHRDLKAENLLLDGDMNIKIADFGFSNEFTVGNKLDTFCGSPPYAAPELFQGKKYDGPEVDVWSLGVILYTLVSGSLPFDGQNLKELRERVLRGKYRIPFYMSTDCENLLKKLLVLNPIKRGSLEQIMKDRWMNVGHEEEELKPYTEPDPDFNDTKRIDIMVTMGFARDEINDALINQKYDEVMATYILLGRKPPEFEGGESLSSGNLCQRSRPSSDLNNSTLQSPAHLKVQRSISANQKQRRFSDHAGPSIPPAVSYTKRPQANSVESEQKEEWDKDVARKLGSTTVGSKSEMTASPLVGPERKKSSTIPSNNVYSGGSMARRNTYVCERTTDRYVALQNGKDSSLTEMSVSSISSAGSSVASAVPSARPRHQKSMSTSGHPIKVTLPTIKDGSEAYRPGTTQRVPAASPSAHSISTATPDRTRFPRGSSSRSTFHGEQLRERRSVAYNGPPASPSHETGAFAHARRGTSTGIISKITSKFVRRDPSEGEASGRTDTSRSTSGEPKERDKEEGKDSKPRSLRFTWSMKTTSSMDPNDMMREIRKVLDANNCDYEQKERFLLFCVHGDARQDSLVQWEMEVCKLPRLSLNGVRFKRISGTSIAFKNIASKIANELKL

CAMK1 (human) = CAMK1 (human) (UniProt Q14012)
NTRK3 (human) = NTRK3 (human) (UniProt Q16288)
CSNK1G3 (human) = CSNK1G3 (human) (UniProt Q9Y6M4)
PNCK (human) = PNCK (human) (UniProt Q6P2M8)
Chain of PNCK (human) (Q6P2M8 whole entry, looked up): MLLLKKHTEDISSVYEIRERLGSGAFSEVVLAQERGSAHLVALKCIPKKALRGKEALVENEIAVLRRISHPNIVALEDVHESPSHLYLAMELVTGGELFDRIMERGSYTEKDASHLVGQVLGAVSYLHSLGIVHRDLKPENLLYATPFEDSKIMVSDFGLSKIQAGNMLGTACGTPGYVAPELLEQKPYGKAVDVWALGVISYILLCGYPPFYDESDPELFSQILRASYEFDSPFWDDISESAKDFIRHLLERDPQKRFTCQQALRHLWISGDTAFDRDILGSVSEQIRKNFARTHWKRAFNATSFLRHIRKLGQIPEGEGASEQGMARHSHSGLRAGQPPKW

PRKCH (human) = PRKCH (human) (UniProt P24723)
CSK (human) = CSK (human) (UniProt P41240)
Chain of CSK (human) (P41240 whole entry, looked up): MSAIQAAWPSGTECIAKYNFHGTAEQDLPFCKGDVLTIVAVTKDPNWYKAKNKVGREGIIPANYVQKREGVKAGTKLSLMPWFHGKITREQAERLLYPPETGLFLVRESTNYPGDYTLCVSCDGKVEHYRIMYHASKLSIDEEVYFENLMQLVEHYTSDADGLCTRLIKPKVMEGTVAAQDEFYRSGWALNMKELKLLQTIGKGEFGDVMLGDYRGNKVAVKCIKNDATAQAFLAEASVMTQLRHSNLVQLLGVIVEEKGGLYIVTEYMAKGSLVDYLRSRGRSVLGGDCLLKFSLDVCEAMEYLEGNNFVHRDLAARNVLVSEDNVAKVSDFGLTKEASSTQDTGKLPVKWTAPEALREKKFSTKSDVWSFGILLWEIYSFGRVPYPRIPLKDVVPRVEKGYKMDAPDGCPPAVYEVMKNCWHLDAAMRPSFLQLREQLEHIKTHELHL

MAP3K14 (human) = MAP3K14 (human) (UniProt Q99558)
DMPK (human) = DMPK (human) (UniProt Q09013)
PAK2 (human) = PAK2 (human) (UniProt Q13177)
MERTK (human) = MERTK (human) (UniProt Q12866)
FGFR3 (human) = FGFR3 (human) (UniProt P22607)
STK3 (human) = STK3 (human) (UniProt Q13188)
Chain of STK3 (human) (Q13188 whole entry, looked up): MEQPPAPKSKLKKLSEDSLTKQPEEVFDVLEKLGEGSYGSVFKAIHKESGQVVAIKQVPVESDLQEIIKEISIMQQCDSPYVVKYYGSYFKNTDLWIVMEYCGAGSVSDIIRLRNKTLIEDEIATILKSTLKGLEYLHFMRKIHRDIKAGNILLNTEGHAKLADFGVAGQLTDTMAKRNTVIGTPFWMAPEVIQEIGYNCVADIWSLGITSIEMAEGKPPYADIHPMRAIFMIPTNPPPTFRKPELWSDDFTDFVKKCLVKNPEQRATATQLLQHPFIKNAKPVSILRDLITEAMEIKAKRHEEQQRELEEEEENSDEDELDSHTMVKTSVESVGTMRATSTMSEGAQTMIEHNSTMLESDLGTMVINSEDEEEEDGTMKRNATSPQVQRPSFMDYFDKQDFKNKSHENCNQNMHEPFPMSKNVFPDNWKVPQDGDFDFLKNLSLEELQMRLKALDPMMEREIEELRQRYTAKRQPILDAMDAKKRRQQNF

SRPK3 (human) = SRPK3 (human) (UniProt Q9UPE1)
CAMK2D (human) = CAMK2D (human) (UniProt Q13557)
PRKACA (human) = PRKACA (human) (UniProt P17612)
DAPK1 (human) = DAPK1 (human) (UniProt P53355)
PTK2B (human) = PTK2B (human) (UniProt Q14289)
TEC (human) = TEC (human) (UniProt P42680)
Chain of TEC (human) (P42680 whole entry, looked up): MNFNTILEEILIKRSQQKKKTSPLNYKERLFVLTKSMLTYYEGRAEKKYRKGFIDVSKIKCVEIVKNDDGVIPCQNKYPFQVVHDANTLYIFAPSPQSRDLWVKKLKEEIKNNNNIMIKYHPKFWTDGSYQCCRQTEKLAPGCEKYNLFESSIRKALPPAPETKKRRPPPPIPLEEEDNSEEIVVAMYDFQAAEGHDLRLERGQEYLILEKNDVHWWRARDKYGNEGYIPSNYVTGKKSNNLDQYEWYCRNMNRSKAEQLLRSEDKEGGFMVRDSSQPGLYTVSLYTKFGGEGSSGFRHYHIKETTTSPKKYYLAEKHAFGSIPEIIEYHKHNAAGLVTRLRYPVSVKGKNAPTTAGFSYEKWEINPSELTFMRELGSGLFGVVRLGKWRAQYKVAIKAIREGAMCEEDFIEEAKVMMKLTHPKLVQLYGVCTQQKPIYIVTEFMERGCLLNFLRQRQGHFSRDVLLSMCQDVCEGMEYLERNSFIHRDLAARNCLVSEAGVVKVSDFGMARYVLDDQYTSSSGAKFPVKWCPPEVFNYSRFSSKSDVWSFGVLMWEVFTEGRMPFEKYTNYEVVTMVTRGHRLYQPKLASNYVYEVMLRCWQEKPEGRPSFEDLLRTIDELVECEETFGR

EPHA4 (human) = EPHA4 (human) (UniProt P54764)
PTK2 (human) = PTK2 (human) (UniProt Q05397)
[1] = target: JAK1 JH1 catalytic (human) (UniProt P23458)
DYRK2 (human) = DYRK2 (human) (UniProt Q92630)
Chain of DYRK2 (human) (Q92630 whole entry, looked up): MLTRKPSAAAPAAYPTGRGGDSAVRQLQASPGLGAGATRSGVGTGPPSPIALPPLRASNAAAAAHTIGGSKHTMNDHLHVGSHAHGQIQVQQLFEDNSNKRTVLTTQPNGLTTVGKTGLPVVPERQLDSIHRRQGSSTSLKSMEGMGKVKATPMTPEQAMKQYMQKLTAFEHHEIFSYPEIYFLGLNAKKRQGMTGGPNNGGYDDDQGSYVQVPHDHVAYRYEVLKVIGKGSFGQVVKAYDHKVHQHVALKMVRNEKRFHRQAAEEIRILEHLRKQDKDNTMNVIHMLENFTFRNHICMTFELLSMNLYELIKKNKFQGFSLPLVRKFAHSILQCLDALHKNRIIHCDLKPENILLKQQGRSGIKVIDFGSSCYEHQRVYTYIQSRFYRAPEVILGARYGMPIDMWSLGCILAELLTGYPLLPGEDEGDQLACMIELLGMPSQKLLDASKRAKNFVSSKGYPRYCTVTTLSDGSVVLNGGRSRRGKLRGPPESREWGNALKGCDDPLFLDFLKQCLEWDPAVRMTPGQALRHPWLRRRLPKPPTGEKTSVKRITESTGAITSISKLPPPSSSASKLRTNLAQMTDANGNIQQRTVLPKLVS

NUAK1 (human) = NUAK1 (human) (UniProt O60285)
Chain of NUAK1 (human) (O60285 whole entry, looked up): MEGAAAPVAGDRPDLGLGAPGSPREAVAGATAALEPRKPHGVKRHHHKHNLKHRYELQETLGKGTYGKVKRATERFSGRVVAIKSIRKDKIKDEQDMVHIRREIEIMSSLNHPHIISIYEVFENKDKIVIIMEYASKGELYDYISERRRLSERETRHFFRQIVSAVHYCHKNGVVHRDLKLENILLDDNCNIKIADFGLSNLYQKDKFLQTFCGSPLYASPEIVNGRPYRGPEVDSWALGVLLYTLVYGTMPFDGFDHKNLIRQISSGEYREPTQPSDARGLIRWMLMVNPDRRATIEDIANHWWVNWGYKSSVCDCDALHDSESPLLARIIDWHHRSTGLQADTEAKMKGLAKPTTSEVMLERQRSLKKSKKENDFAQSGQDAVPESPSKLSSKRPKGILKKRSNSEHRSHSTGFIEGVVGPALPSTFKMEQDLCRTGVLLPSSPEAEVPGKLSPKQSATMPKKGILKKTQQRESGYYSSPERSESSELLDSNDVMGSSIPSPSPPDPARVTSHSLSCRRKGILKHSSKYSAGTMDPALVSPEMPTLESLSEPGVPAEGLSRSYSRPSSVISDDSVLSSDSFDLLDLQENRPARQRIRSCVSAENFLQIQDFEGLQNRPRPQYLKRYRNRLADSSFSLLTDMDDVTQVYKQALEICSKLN

CDK9 CCNT1 (human) = CDK9 CCNT1 (human) (UniProt P50750+O60563)
TSSK2 (human) = TSSK2 (human) (UniProt Q96PF2)

NC(=O)c1ccc(N(C(N)=O)c2c(F)cccc2F)nc1-c1ccc(F)cc1F
residual activity (CDK7 CCNH MNAT1 (human)): 102% | residual activity (MAP3K8 (human)): 94.3% | residual activity (CDK9 CCNK (human)): 106% | residual activity (LCK (human)): 86.3% | residual activity (PAK3 (human)): 98.3% | residual activity (PKN1 (human)): 101% | residual activity (PDGFRA (human)): 102% | residual activity (LYN (human)): 106% and 98.1% | residual activity (NUAK2 (human)): 98.7% | residual activity (ACVR1B (human)): 113% | residual activity (MAPKAPK5 (human)): 93.4% | residual activity (CDC42BPA (human)): 93.8% | residual activity (WEE1 (human)): 101% | residual activity (FLT1 (human)): 102% | residual activity (PHKG1 (human)): 92% | residual activity (GSK3A (human)): 98.6% | residual activity (MARK1 (human)): 132% | residual activity (CAMK1 (human)): 98.1% | residual activity (NTRK3 (human)): 95.9% | residual activity (CSNK1G3 (human)): 103% | residual activity (PNCK (human)): 108% | residual activity (PRKCH (human)): 112% | residual activity (CSK (human)): 90% | residual activity (MAP3K14 (human)): 114% | residual activity (DMPK (human)): 104% | residual activity (PAK2 (human)): 101% | residual activity (MERTK (human)): 114% | residual activity (FGFR3 (human)): 90.2% | residual activity (STK3 (human)): 94.1% | residual activity (SRPK3 (human)): 105% | residual activity (CAMK2D (human)): 87.3% | residual activity (PRKACA (human)): 101% | residual activity (DAPK1 (human)): 98.2% | residual activity (PTK2B (human)): 102% | residual activity (TEC (human)): 114% | residual activity (EPHA4 (human)): 105% | residual activity (PTK2 (human)): 98.9% | residual activity [1]: 98.8% | residual activity (DYRK2 (human)): 102% | residual activity (NUAK1 (human)): 108% | residual activity (CDK9 CCNT1 (human)): 96.7% | residual activity (TSSK2 (human)): 88.6%

O=c1cc(-c2cccc3c2Sc2ccccc2S3)oc(N2CCOCC2)c1
residual activity (CDK7 CCNH MNAT1 (human)): 96.5% | residual activity (MAP3K8 (human)): 103% | residual activity (CDK9 CCNK (human)): 109% | residual activity (LCK (human)): 98.1% | residual activity (PAK3 (human)): 95% | residual activity (PKN1 (human)): 94.4% | residual activity (PDGFRA (human)): 101% | residual activity (LYN (human)): 106% and 116% | residual activity (NUAK2 (human)): 109% | residual activity (ACVR1B (human)): 114% | residual activity (MAPKAPK5 (human)): 94.5% | residual activity (CDC42BPA (human)): 106% | residual activity (WEE1 (human)): 98.3% | residual activity (FLT1 (human)): 90.8% | residual activity (PHKG1 (human)): 106% | residual activity (GSK3A (human)): 86.7% | residual activity (MARK1 (human)): 100% | residual activity (CAMK1 (human)): 94.2% | residual activity (NTRK3 (human)): 99.7% | residual activity (CSNK1G3 (human)): 87.9% | residual activity (PNCK (human)): 109% | residual activity (PRKCH (human)): 99.7% | residual activity (CSK (human)): 95.7% | residual activity (MAP3K14 (human)): 94.9% | residual activity (DMPK (human)): 94.8% | residual activity (PAK2 (human)): 100% | residual activity (MERTK (human)): 97% | residual activity (FGFR3 (human)): 94.7% | residual activity (STK3 (human)): 101% | residual activity (SRPK3 (human)): 99.6% | residual activity (CAMK2D (human)): 104% | residual activity (PRKACA (human)): 99.6% | residual activity (DAPK1 (human)): 82.7% | residual activity (PTK2B (human)): 106% | residual activity (TEC (human)): 198% | residual activity (EPHA4 (human)): 101% | residual activity (PTK2 (human)): 113% | residual activity [1]: 105% | residual activity (DYRK2 (human)): 104% | residual activity (NUAK1 (human)): 93.1% | residual activity (CDK9 CCNT1 (human)): 100% | residual activity (TSSK2 (human)): 97.7%
